Publication PMC7062083, “Metabolite identification, tissue distribution, excretion and preclinical pharmacokinetic studies of ET-26-HCl, a new analogue of etomidate” (Royal Society Open Science, 2020)

Assays:
[1] = Plasma protein binding, equilibrium dialysis, mouse plasma; assay type: in vitro ADME
Description: (§1) The PPB of ET-26-HCl in mouse, rat, beagle dog, monkey and human plasma was determined according to the equilibrium dialysis method. In brief, 1 ml of control plasma samples in dialysis bag was incubated in 10 ml of PBS containing ET-26-HCl at a final concentration of 2.21 × 10^2, 1.77 × 10^3 and 3.54 × 10^3 […] at 4°C with an equilibrium time of 9 h to reach the mass balance binding condition. A 100 µl aliquots of the PBS buffer and the plasma in the dialysis bag were transferred to 2 ml EP tubes and diluted to 995 µl with PBS and analysed on the LC–MS/MS system. The PPB (fppb) was calculated as follows: fppb=Din−Dout/Din×100% , where Din is the plasma drug concentration in the dialysis bag and Dout is the dialysate drug concentration.

[2] = Pharmacokinetics in beagle dogs after intravenous administration; assay type: in vivo; conditions: beagle dogs; for λ: i.v.; for Vd / half-life / AUC0-t / Cmax / clearance: both sexes, dog, plasma, iv; for Vd / half-life: beagle
Description: (§2) Concentrations of ET-26-HCl and ET-26-acid in biological samples were determined by liquid chromatography–tandem mass spectrometry (LC–MS/MS) after deproteinization with methanol. The bioanalytical method for simultaneous quantification of ET-26-HCl and ET-26-acid in the different matrix was fully validated according to FDA guidelines (electronic supplementary material, figure S1 and tables S1 and S2) in our previous study. Briefly, a 100 µl sample (plasma, tissue homogenate, bile, urine and faeces suspension) were spiked with 20 µl of IS solution and vortexed for 30 s. The mixture was then processed for protein precipitation with 300 µl methanol, followed by centrifugation at 12 000 r.p.m. for 5 min. Supernatant was collected and analysed by LC–MS/MS system.
The LC–MS/MS was performed as described previously. Briefly, ET-26-HCl, ET-26-acid and GBP were separated using a CAPCELL PAK C18 column (50 × 2.00 mm, 5.00 µm) as well as a Security Guard Cartridge (C18, 4 mm × 3.00 mm i.d., Phenomenex). The mobile phase consisting of 0.3% formic acid water (A), and methanol (B) was pumped at a flow rate of 0.6 ml min^−1. The gradient elution was achieved according to the following protocol: 0 min to about 0.50 min, A/B (41/9, v/v); 0.51 min to about 1.5 min, A/B (1/9, v/v); and 1.51 min to about 2.00 min, A/B ([…], v/v). Mass spectrometry was conducted on an API 3000 mass spectrometer (Sciex, Framingham, MA, USA) equipped with an electrospray ionization (ESI) source operating in positive mode. The MS/MS system was in the multiple reaction monitoring (MRM) mode, using the m/z transitions of 275.6/170.9 for ET-26-HCl, 217.7/113.1 for ET-26-acid and 172.5/154.3 for GBP (IS), respectively. The API 3000 mass parameters were set according to the following protocol: curtain gas, 6 psi; collision gas, 8 psi; nebulizer, 4 psi; ion spray voltage, 3000 V and ion source temperature, 450°C. The autosampler was conditioned at 4°C, and the injection volume was 5 µl. The linear ranges of this analytical method for ET-26-HCl and for ET-26-acid from all biological samples are shown in electronic supplementary material, table S3.
Beagle dogs, weighing 9–11 kg, were purchased from Sichuan Industrial of Antibiotics, China National Pharmaceutical Group Corporation (Chengdu, China). A 3 × 3 crossover experimental design with 24 beagles (equal number of male and female dogs) randomly divided into six groups was conducted. Beagle dogs in the six groups received three doses of ET-26-HCl: 1.045 mg kg^−1, 2.090 mg kg^−1 and 4.180 mg kg^−1 as low (L), medium (M) and high (H) dose. Blood samples (2 ml) were collected from the elbow vein in 4 ml heparinized tubes before dosing, and at 1, 3, 5, 10, 20, 30, 120 and 180 min post-dosing. All blood samples were centrifuged at 8000 r.p.m. for 10 min and plasma collected and stored at −80°C until analysis.
All calculations were performed on Microsoft Excel 2016 (Microsoft Co., USA). The Drug and Statistics 3.2.7 (DAS 3.2.7) software package (Mathematical Pharmacology Professional Committee of China, China) was used to acquire the main pharmacokinetic parameters of ET-26-HCl. All data were shown as mean ± standard deviation (s.d.). Statistical significances were calculated by one-way analysis of variance (ANOVA).

[3] = Plasma protein binding, equilibrium dialysis, rat plasma; assay type: in vitro ADME
Description: as §1

[4] = set-up: method as in earlier work; conditions: dog; ref results of the drug effect in the early stage of the cooperation laboratory; cited from earlier work
[5] = Stability in beagle plasma (LC-MS/MS); assay type: in vitro ADME
Description: as §2

[6] = Excretion (urine, faeces, bile) in Sprague Dawley rats; assay type: in vivo
Description: as §2
SD rats (4 male and 4 female) received 4.2 mg kg^−1 of ET-26-HCl intravenously and were housed in metabolic cages. Urine and faeces from the treated rats were collected between 0–6, 6–12, 12–24, 24–30, 30–36 and 36–48 h post-dosing. Urine volume and faeces weight were measured and recorded.
Bile fistulas of SD rats (four male and four female) were cannulated with polyethylene tube (Instech Laboratories, Inc., USA) and bile was collected at the following time-points: 0–3, 3–6, 6–9, 9–12 and 12–24 h post-dosing. The volume of the collected bile was measured and stored at −80°C until analysis.

[7] = Plasma protein binding, equilibrium dialysis, human plasma; assay type: in vitro ADME; conditions: human, plasma
Description: as §1

[8] = measured concentration 654 ng ml^−1
[9] = measured concentration 2.62 × 10^3 ng ml^−1, read-out: protein binding (converted)
[10] = measured concentration 5.23 × 10^3 ng ml^−1, read-out: protein binding (converted)
[11] = overall over the three concentrations, read-out: plasma protein binding rate (converted)
[12] = i.v. ET-26-HCl 4.2 mg kg^−1, collected to 48 h

COCCOC(=O)c1cncn1[C@H](C)c1ccccc1.Cl [ET-26-HCl, (R)-2-methoxyethyl1-(1-phenylethyl)-1H-imidazole-5-carboxylate hydrochloride]
fraction unbound at 9 h, 654 ng ml^−1 [1, 8]: 0.0453
fraction unbound at 9 h [1, 9]: 0.0539
fraction unbound at 9 h [1, 10]: 0.0702
fraction unbound at 9 h [1, 11]: 0.0565 ± 0.000689
λ ([2]; 1.045 mg kg^−1): 0.78 ± 0.06 1 h^−1
λ ([2]; 2.09 mg kg^−1): 0.54 ± 0.06 1 h^−1
λ ([2]; 4.18 mg kg^−1): 0.36 ± 0.06 1 h^−1
Vd ([2]; 1.045 mg/kg, 1.045 mg kg^−1): 2.54 ± 0.29 L/kg
half-life ([2]; 1.045 mg/kg, 1.045 mg kg^−1): 0.92 ± 0.08 h
Vd ([2]; 2.09 mg/kg, 2.09 mg kg^−1): ~4 L/kg
half-life ([2]; 2.09 mg/kg, 2.09 mg kg^−1): ~1 h
Vd ([2]; 4.18 mg/kg, 4.18 mg kg^−1): 4.63 ± 0.67 L/kg
half-life ([2]; 4.18 mg/kg, 4.18 mg kg^−1): 2.17 ± 0.5 h
AUC0-t ([2]; 1.045 mg kg^−1): 30100 ng·h/mL
Cmax ([2]; 1.045 mg kg^−1): 1480 ± 140 ng/mL
clearance ([2]; 1.045 mg kg^−1): 32 mL/min/kg
AUC0-t ([2]; 2.09 mg kg^−1): 62700 ng·h/mL
Cmax ([2]; 2.09 mg kg^−1): 2850 ± 220 ng/mL
clearance ([2]; 2.09 mg kg^−1): 30 mL/min/kg
AUC0-t ([2]; 4.18 mg kg^−1): 130000 ng·h/mL
Cmax ([2]; 4.18 mg kg^−1): 6230 ± 240 ng/mL
clearance ([2]; 4.18 mg kg^−1): 25 mL/min/kg
fraction unbound at 9 h, 654 ng ml^−1 [3, 8]: 0.181
fraction unbound at 9 h [3, 9]: 0.15
fraction unbound at 9 h [3, 10]: 0.178
fraction unbound at 9 h [3, 11]: 0.17
ED50 [4]: 1.045 mg/kg
Measured concentration (Mean ± SD) ([5]; 4◦C for 3 h, nominal 44.92 ng/mL): 48.79 ± 3.275 ng/mL
Measured concentration (Mean ± SD) ([5]; 4◦C for 3 h, nominal 3743 ng/mL): 3977 ± 294.1 ng/mL
Measured concentration (Mean ± SD) ([5]; Freeze and Thaw Cycle (3), nominal 44.92 ng/mL): 47.75 ± 3.427 ng/mL
Measured concentration (Mean ± SD) ([5]; Freeze and Thaw Cycle (3), nominal 3743 ng/mL): 3722 ± 240.3 ng/mL
Measured concentration (Mean ± SD) ([5]; Room temperature 3 h, nominal 44.92 ng/mL): 47.91 ± 4.952 ng/mL
Measured concentration (Mean ± SD) ([5]; Room temperature 3 h, nominal 3743 ng/mL): 3599 ± 136.1 ng/mL
Measured concentration (Mean ± SD) ([5]; –80 ◦C for 30 days, nominal 44.92 ng/mL): 44.67 ± 4.795 ng/mL
Measured concentration (Mean ± SD) ([5]; –80 ◦C for 30 days, nominal 3743 ng/mL): 3989 ± 229.1 ng/mL
accumulative excretion through bile ([6]; i.v. ET-26-HCl 4.2 mg kg^−1, bile collected to 24 h): 0.619%
accumulative excretion through faeces [6, 12]: 0.076%
accumulative excretion through urine [6, 12]: 11.97%
fraction unbound at 9 h, 654 ng ml^−1 [7, 8]: 0.372
fraction unbound at 9 h [7, 9]: 0.318
fraction unbound at 9 h [7, 10]: 0.261
fraction unbound at 9 h [7, 11]: 0.317
